Data: patent US20200069552A1, “COSMETIC AND/OR DERMATOLOGICAL COMPOSITION, AND USES THEREOF IN THE COSMETIC FIELD AND IN THE ADJUVANT TREATMENT OF DERMATOLOGICAL PATHOLOGIES” (ISTITUTO GANASSINI S.P.A. DI RICERCHE BIOCHIMICHE, priority 2017, published 2020)

Assay: Viscosity at 25° C. with a Brookfield viscometer DV-I
Assay type: physicochemical

viscosity, in words (25° C.): extremely fluid
Viscosity at 25° C. (Rotor G = 2, 10 rpm): 3200 cP
Structure (SMILES): CC(=O)Oc1c(C)c(C)c2c(c1C)CCC(C)(CCC[C@H](C)CCC[C@H](C)CCCC(C)C)O2 (some centres unmarked) [Comp A, Vitamin E acetate]
